Data: PMC11121837, “Impact of Nitric Oxide-Release Kinetics on Antifungal Activity” (Journal of Fungi, 2024)
Converted amounts (≈) assume the structure as drawn.

Columns and labels:
[1] = test system: MatTek EpiAirway tissue (AIR-100); assay: cells; type: cell-based; conditions: Homo sapiens, 24 h, read-out: IC50 (concentration needed to inhibit tissue viability by 50%)
[2] = test system: C. albicans (ATCC MYA-2876); assay: Checkerboard assay of NO donors with antifungals; type: cell-based, Candida albicans
[3] = Characterization of NO release (chemiluminescence nitric oxide analyzer); type: physicochemical
Cryptococcus neoformans = assay: Susceptibility assay (MIC, broth microdilution, CLSI M27); type: cell-based; conditions: for MIC / NO dose at MIC: Cryptococcus neoformans; for MIC: 72 h; for NO dose at MIC: calculated NO dose at MIC
[4] = test system: Aspergillus fumigatus spores; assay: Susceptibility assay for sporulating fungi (MIC, EUCAST E.Def.9.4); type: cell-based; conditions: for Selectivity Index (IC50 AIR-100 / MIC): A. fumigatus ATCC 1022; for MIC / NO dose at MIC: ATCC1022, Aspergillus fumigatus ATCC 1022 spores; for NO dose at MIC: calculated NO dose at MIC
C. auris (MYA-5001) = type: cell-based, Candida auris
Candida albicans = assay: Susceptibility assay (MIC, broth microdilution, CLSI M27); type: cell-based; conditions: for MIC: 24 h; for NO dose at MIC: calculated NO dose at MIC
panel of fungal isolates = assay: Susceptibility assays, summary over the panel of fungal isolates; type: cell-based; conditions: IC50 AIR-100 / MIC
[5] = test system: C. neoformans (ATCC 208821); assay: Checkerboard assay of NO donors with antifungals; type: cell-based, Cryptococcus neoformans
C. auris (ATCC MYA-5001) = assay: Checkerboard assay of NO donors with antifungals; type: cell-based, Candida auris
[6] = test system: C. neoformans (ATCC208821); type: cell-based, Cryptococcus neoformans
Candida auris = assay: Susceptibility assay (MIC, broth microdilution, CLSI M27); type: cell-based; conditions: for MIC / NO dose at MIC: Candidozyma auris; for MIC: 24 h; for NO dose at MIC: calculated NO dose at MIC
[7] = NO donor combined with 5-fluorocytosine
[8] = NO donor combined with amphotericin B
[9] = NO donor combined with butenafine
[10] = NO donor combined with caspofungin
[11] = NO donor combined with fluconazole
[12] = NO donor combined with miconazole
[13] = phosphate-buffered saline 10 mM, pH 7.4, 37 °C
[14] = Cryptococcus neoformans ATCC MYA-4566
[15] = Cryptococcus neoformans ATCC MYA-4567
[16] = ATCC208821, 72 h, Cryptococcus neoformans ATCC 208821
[17] = ATCC208821, Cryptococcus neoformans ATCC 208821
[18] = ATCC14053, Candida albicans ATCC 14053
[19] = ATCC18804, Candida albicans ATCC 18804

SMILES: NCCCN(CCCN)/[N+]([O-])=N/O [DPTA/NO, bis(3-aminopropyl) amine/NO]
- IC50 [1]: 18000 µg/mL (≈ 94100 µM)
- checkerboard classification [2, 7]: I (indifferent (I))
- ∑FIC [2, 7]: ≥ 1
- checkerboard classification [2, 8]: I (indifferent (I))
- ∑FIC [2, 8]: ≥ 1
- checkerboard classification [2, 9]: I (indifferent (I))
- ∑FIC [2, 9]: ≥ 1
- checkerboard classification [2, 10]: I (indifferent (I))
- ∑FIC [2, 10]: ≥ 1
- checkerboard classification [2, 11]: I (indifferent (I))
- ∑FIC [2, 11]: ≥ 1
- checkerboard classification [2, 12]: I (indifferent (I))
- ∑FIC [2, 12]: ≥ 1
- [NO]t, total NO released over full duration ([3]; pH 7.4): 7.0 ± 1.1 µmol/mg
- [NO]max, maximum instantaneous NO concentration [3, 13]: 2867 ± 211 ppb mg^−1
- td, duration of NO release [3, 13]: 31.0 ± 3.3 h
- Selectivity Index (IC50 AIR-100 / MIC) (Cryptococcus neoformans; C. neoformans ATCC 208821): 18
- Selectivity Index (IC50 AIR-100 / MIC) (Cryptococcus neoformans; C. neoformans ATCC MYA-4566): 28
- Selectivity Index (IC50 AIR-100 / MIC) (Cryptococcus neoformans; C. neoformans ATCC MYA-4567): 28
- MIC (Cryptococcus neoformans; [14]): 625 µg/mL (≈ 3270 µM)
- MIC (Cryptococcus neoformans; [15]): 625 µg/mL (≈ 3270 µM)
- MIC (Cryptococcus neoformans; [16]): 1000 µg/mL (≈ 5230 µM)
- NO dose at MIC (Cryptococcus neoformans; [17]): 210 µg/mL
- NO dose at MIC (Cryptococcus neoformans; [14]): 131 µg/mL
- NO dose at MIC (Cryptococcus neoformans; [15]): 131 µg/mL
- Selectivity Index (IC50 AIR-100 / MIC) [4]: 14
- MIC [4]: 1250 µg/mL (≈ 6540 µM)
- NO dose at MIC [4]: 262 µg/mL
- change in MIC or MFCs after serial passaging (C. auris (MYA-5001)): no changes
- MIC (Candida albicans; [18]): 625 µg/mL (≈ 3270 µM)
- NO dose at MIC (Candida albicans; [18]): 131 µg/mL
- MIC (Candida albicans; [19]): 625 µg/mL (≈ 3270 µM)
- NO dose at MIC (Candida albicans; [19]): 131 µg/mL
- Selectivity Index (IC50 AIR-100 / MIC) (Candida albicans; C. albicans ATCC 14053): 28
- Selectivity Index (IC50 AIR-100 / MIC) (Candida albicans; C. albicans ATCC 18804): 28
- Selectivity Index (IC50 AIR-100 / MIC) (Candida albicans; C. albicans ATCC MYA-2876): 35
- MIC (Candida albicans; Candida albicans ATCC MYA-2876): 500 µg/mL (≈ 2610 µM)
- NO dose at MIC (Candida albicans; Candida albicans ATCC MYA-2876): 105 µg/mL
- selectivity indices, all strains (panel of fungal isolates): below 100
- checkerboard classification [5, 7]: I (indifferent (I))
- ∑FIC [5, 7]: ≥ 1
- checkerboard classification [5, 8]: I (indifferent (I))
- ∑FIC [5, 8]: ≥ 1
- checkerboard classification [5, 9]: I (indifferent (I))
- ∑FIC [5, 9]: ≥ 1
- checkerboard classification [5, 10]: I (indifferent (I))
- ∑FIC [5, 10]: ≥ 1
- checkerboard classification [5, 11]: I (indifferent (I))
- ∑FIC [5, 11]: ≥ 1
- checkerboard classification [5, 12]: S (Synergistic (S))
- ∑FIC [5, 12]: 0.375
- checkerboard classification (C. auris (ATCC MYA-5001); [7]): I (indifferent (I))
- ∑FIC (C. auris (ATCC MYA-5001); [7]): ≥ 1
- checkerboard classification (C. auris (ATCC MYA-5001); [8]): I (indifferent (I))
- ∑FIC (C. auris (ATCC MYA-5001); [8]): ≥ 1
- checkerboard classification (C. auris (ATCC MYA-5001); [9]): I (indifferent (I))
- ∑FIC (C. auris (ATCC MYA-5001); [9]): ≥ 1
- checkerboard classification (C. auris (ATCC MYA-5001); [10]): I (indifferent (I))
- ∑FIC (C. auris (ATCC MYA-5001); [10]): ≥ 1
- checkerboard classification (C. auris (ATCC MYA-5001); [11]): I (indifferent (I))
- ∑FIC (C. auris (ATCC MYA-5001); [11]): ≥ 1
- checkerboard classification (C. auris (ATCC MYA-5001); [12]): A (additive (A))
- ∑FIC (C. auris (ATCC MYA-5001); [12]): 0.625
- outcome of passaging at sub-MIC dose [6]: yeast death after the second passage
- Selectivity Index (IC50 AIR-100 / MIC) (Candida auris; C. auris ATCC MYA-5000): 28
- Selectivity Index (IC50 AIR-100 / MIC) (Candida auris; C. auris ATCC MYA-5001): 35
- Selectivity Index (IC50 AIR-100 / MIC) (Candida auris; C. auris ATCC MYA-5003): 57
- MIC (Candida auris; Candida auris ATCC MYA-5000): 625 µg/mL (≈ 3270 µM)
- MIC (Candida auris; Candida auris ATCC MYA-5001): 500 µg/mL (≈ 2610 µM)
- MIC (Candida auris; Candida auris ATCC MYA-5003): 310 µg/mL (≈ 1620 µM)
- NO dose at MIC (Candida auris; Candida auris ATCC MYA-5000): 131 µg/mL
- NO dose at MIC (Candida auris; Candida auris ATCC MYA-5001): 105 µg/mL
- NO dose at MIC (Candida auris; Candida auris ATCC MYA-5003): 65.3 µg/mL

SMILES: NCCCNCCCCN(CCCN)/[N+]([O-])=N/O [SPER/NO, spermine/NO]
- IC50 [1]: 20000 µg/mL (≈ 76200 µM)
- checkerboard classification [2, 7]: I (indifferent (I))
- ∑FIC [2, 7]: ≥ 1
- checkerboard classification [2, 8]: I (indifferent (I))
- ∑FIC [2, 8]: ≥ 1
- checkerboard classification [2, 9]: I (indifferent (I))
- ∑FIC [2, 9]: ≥ 1
- checkerboard classification [2, 10]: I (indifferent (I))
- ∑FIC [2, 10]: ≥ 1
- checkerboard classification [2, 11]: I (indifferent (I))
- ∑FIC [2, 11]: ≥ 1
- checkerboard classification [2, 12]: S (Synergistic (S))
- ∑FIC [2, 12]: 0.265
- [NO]max, maximum instantaneous NO concentration [3, 13]: 7535 ± 222 ppb mg^−1
- [NO]t, total NO released over full duration [3, 13]: 5.1 ± 0.2 µmol/mg
- td, duration of NO release [3, 13]: 14.8 ± 2.9 h
- Selectivity Index (IC50 AIR-100 / MIC) (Cryptococcus neoformans; C. neoformans ATCC 208821): 41
- Selectivity Index (IC50 AIR-100 / MIC) (Cryptococcus neoformans; C. neoformans ATCC MYA-4566): 1079
- Selectivity Index (IC50 AIR-100 / MIC) (Cryptococcus neoformans; C. neoformans ATCC MYA-4567): 263
- MIC (Cryptococcus neoformans; [14]): 19 µg/mL (≈ 72.4 µM)
- MIC (Cryptococcus neoformans; [15]): 78 µg/mL (≈ 297 µM)
- MIC (Cryptococcus neoformans; [16]): 500 µg/mL (≈ 1910 µM)
- NO dose at MIC (Cryptococcus neoformans; [17]): 76.8 µg/mL
- NO dose at MIC (Cryptococcus neoformans; [14]): 3.08 µg/mL
- NO dose at MIC (Cryptococcus neoformans; [15]): 12 µg/mL
- Selectivity Index (IC50 AIR-100 / MIC) [4]: 293
- MIC [4]: 70 µg/mL (≈ 267 µM)
- NO dose at MIC [4]: 10.7 µg/mL
- change in MIC or MFCs after serial passaging (C. auris (MYA-5001)): no changes
- MIC (Candida albicans; [18]): 250 µg/mL (≈ 953 µM)
- NO dose at MIC (Candida albicans; [18]): 38.6 µg/mL
- MIC (Candida albicans; [19]): 150 µg/mL (≈ 572 µM)
- NO dose at MIC (Candida albicans; [19]): 23.1 µg/mL
- Selectivity Index (IC50 AIR-100 / MIC) (Candida albicans; C. albicans ATCC 14053): 82
- Selectivity Index (IC50 AIR-100 / MIC) (Candida albicans; C. albicans ATCC 18804): 137
- Selectivity Index (IC50 AIR-100 / MIC) (Candida albicans; C. albicans ATCC MYA-2876): 164
- MIC (Candida albicans; Candida albicans ATCC MYA-2876): 125 µg/mL (≈ 476 µM)
- NO dose at MIC (Candida albicans; Candida albicans ATCC MYA-2876): 19.2 µg/mL
- checkerboard classification [5, 7]: I (indifferent (I))
- ∑FIC [5, 7]: ≥ 1
- checkerboard classification [5, 8]: I (indifferent (I))
- ∑FIC [5, 8]: ≥ 1
- checkerboard classification [5, 9]: A (additive (A))
- ∑FIC [5, 9]: 0.562
- checkerboard classification [5, 10]: I (indifferent (I))
- ∑FIC [5, 10]: ≥ 1
- checkerboard classification [5, 11]: I (indifferent (I))
- ∑FIC [5, 11]: ≥ 1
- checkerboard classification [5, 12]: S (Synergistic (S))
- ∑FIC [5, 12]: 0.500
- checkerboard classification (C. auris (ATCC MYA-5001); [7]): I (indifferent (I))
- ∑FIC (C. auris (ATCC MYA-5001); [7]): ≥ 1
- checkerboard classification (C. auris (ATCC MYA-5001); [8]): I (indifferent (I))
- ∑FIC (C. auris (ATCC MYA-5001); [8]): ≥ 1
- checkerboard classification (C. auris (ATCC MYA-5001); [9]): I (indifferent (I))
- ∑FIC (C. auris (ATCC MYA-5001); [9]): ≥ 1
- checkerboard classification (C. auris (ATCC MYA-5001); [10]): I (indifferent (I))
- ∑FIC (C. auris (ATCC MYA-5001); [10]): ≥ 1
- checkerboard classification (C. auris (ATCC MYA-5001); [11]): I (indifferent (I))
- ∑FIC (C. auris (ATCC MYA-5001); [11]): ≥ 1
- checkerboard classification (C. auris (ATCC MYA-5001); [12]): S (Synergistic (S))
- ∑FIC (C. auris (ATCC MYA-5001); [12]): 0.375
- outcome of passaging at sub-MIC dose [6]: yeast death after the second passage
- Selectivity Index (IC50 AIR-100 / MIC) (Candida auris; C. auris ATCC MYA-5000): 164
- Selectivity Index (IC50 AIR-100 / MIC) (Candida auris; C. auris ATCC MYA-5001): 82
- Selectivity Index (IC50 AIR-100 / MIC) (Candida auris; C. auris ATCC MYA-5003): 164
- MIC (Candida auris; Candida auris ATCC MYA-5000): 125 µg/mL (≈ 476 µM)
- MIC (Candida auris; Candida auris ATCC MYA-5001): 250 µg/mL (≈ 953 µM)
- MIC (Candida auris; Candida auris ATCC MYA-5003): 125 µg/mL (≈ 476 µM)
- NO dose at MIC (Candida auris; Candida auris ATCC MYA-5000): 19.2 µg/mL
- NO dose at MIC (Candida auris; Candida auris ATCC MYA-5001): 38.6 µg/mL
- NO dose at MIC (Candida auris; Candida auris ATCC MYA-5003): 19.2 µg/mL
